# Bridge positions count the residues as written; N and C are the ends. Square brackets hold non-standard residues; d marks the D form. Peptide text beside a SMILES is read from it. NMePhe(4-Cl) = CN[C@@H](Cc1ccc(Cl)cc1)C(=O)O; Phe(4-Cl) = N[C@@H](Cc1ccc(Cl)cc1)C(=O)O; 1Nal = N[C@@H](Cc1cccc2ccccc12)C(=O)O; His(π-Me) = Cn1cncc1C[C@H](N)C(=O)O; NMeY = CN[C@@H](Cc1ccc(O)cc1)C(=O)O; Gly(N(CH2)3NH2) = NCCCNCC(=O)O; Abu = CC[C@H](N)C(=O)O; Aib = CC(C)(N)C(=O)O
# Tests used:
# Type in all cases: cell-based
# Details in all cases: LB broth, 5×10^5 CFU/ml, 37° C., 18 hours, scored by eye
# E. coli 25922 = assay: Minimum Inhibitory Concentration (MIC) determination, E. coli 25922; design: unit not given here
# Protocol: (§1) MICs were determined by performing two-fold serial dilutions of peptides in LB broth to a final volume of 0.1 ml in round-bottom 96-well assay plates (Corning Life Sciences No 3788). Peptides were initially resuspended in 100% DMSO to 10 mM and subsequently diluted in LB medium to the appropriate concentration. Each well was inoculated with 5×10^5 CFU/ml of the screening stain and incubated at 37° C. without agitation for 18 hours. Plates were scored by eye, and the lowest compound concentration preventing visible growth was determined to be the MIC.
# E. cloacae ATCC222 = assay: Minimum Inhibitory Concentration (MIC) determination, E. cloacae ATCC222; design: unit not given here
# Protocol: as §1
# K. pneumoniae ATCC43816 = assay: Minimum Inhibitory Concentration (MIC) determination, K. pneumoniae ATCC43816; design: unit not given here
# Protocol: as §1
# E. coli BW25113 = assay: Minimum Inhibitory Concentration (MIC) determination, E. coli BW25113; design: unit not given here
# In short: (§2)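 Peptides, diluted two-fold in LB broth from 10 mM DMSO stocks, were inoculated with 5×10^5 CFU/ml of each strain. Incubation was 18 h at 37 °C without shaking. MIC is the lowest concentration preventing visible growth, scored by eye.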
# E. coli 25922 IMP = assay: Minimum Inhibitory Concentration (MIC) determination, E. coli 25922 IMP
# In short: as §2
Structure (SMILES),MIC E. coli 25922 WUXI::MIC (E. coli 25922),MIC E. cloacae ATCC222 WUXI::MIC (E. cloacae ATCC222),MIC K. pneumoniae ATCC43816 Wuxi::MIC (K. pneumoniae ATCC43816),MIC E. coli BW25113 WUXI::MIC (E. coli BW25113),MIC E. coli 25922 IMP WUXI::MIC (E. coli 25922 IMP)
"CC[C@@H]1NC(=O)[C@H](CO)NC(=O)CSC[C@@H](C(=O)NCC(N)=O)NC(=O)[C@H](Cc2cncn2C)NC(=O)[C@H](CCCNC(=N)N)NC(=O)[C@H](Cc2c[nH]cn2)NC(=O)[C@H](Cc2ccc(O)cc2)N(C)C(=O)[C@H](CCCNC(=N)N)NC(=O)[C@H](CO)NC(=O)CNC(=O)[C@H](Cc2c[nH]cn2)NC(=O)[C@H](Cc2cccc3ccccc23)NC1=O [Compound 21, (3R,6S,9S,12S,15S,18S,21S,27S,30S, 33S,36S)-N-(2-amino-2-oxo-ethyl)-33-ethyl-9,18-bis(3-guanidinopropyl)-21,36-bis(hydroxymethyl)-15-[(4-hydroxyphenyl)methyl]-12,27-bis(1H-imidazol-4-ylmethyl)-16-methyl-6-[(3-methylimidazol-4-yl)methyl]-30-(1-naphthylmethyl)-5,8,11,14,17,20,23,26,29,32,35,38-dodecaoxo-1-thia-4,7,10,13,16,19,22,25,28,31,34,37-dodecazacyclononatriacontane-3-carboxamide] ({CH2CO}-S[Abu][1Nal]HGSR[NMeY]HR[His(π-Me)]CG-NH2; thioether N-12)",50,3.1,25,50,0.063
CC[C@H](C)[C@@H]1NC(=O)[C@H]([C@@H](C)O)NC(=O)[C@H](Cc2cncn2C)NC(=O)[C@H](Cc2ccccc2)NC(=O)CSC[C@@H](C(=O)NCC(N)=O)NC(=O)[C@H](Cc2ccc(O)cc2)NC(=O)[C@H](Cc2c[nH]c3ccccc23)NC(=O)[C@H](Cc2ccc(O)cc2)NC(=O)[C@H](Cc2cncn2C)NC(=O)[C@H](Cc2ccccc2)NC(=O)C(C)(C)NC(=O)[C@H](CCCNC(=N)N)NC(=O)[C@H](CCCCN)NC(=O)[C@H](CCCNC(=N)N)NC1=O [Compound 51] ({CH2CO}-F[His(π-Me)]TIRKR[Aib]F[His(π-Me)]YWYCG-NH2; thioether N-14),8,>32,>32,8,0.5
CC[C@H](C)[C@@H]1NC(=O)[C@H]([C@@H](C)O)NC(=O)CNC(=O)[C@H](Cc2ccccc2)NC(=O)CSC[C@@H](C(=O)NCC(N)=O)NC(=O)[C@H](Cc2ccccc2)NC(=O)[C@H](Cc2c[nH]c3ccccc23)NC(=O)[C@H](Cc2ccc(O)cc2)NC(=O)[C@H](CCCNC(=N)N)NC(=O)[C@H](Cc2ccccc2)NC(=O)[C@H](CCCNC(=N)N)NC(=O)[C@H](CCCNC(=N)N)NC(=O)[C@H](CCCCN)NC(=O)[C@H](Cc2cnc[nH]2)NC1=O (racemic) [Compound 50],2,>64,32,2,1
CC[C@@H]1NC(=O)[C@H](Cc2ccccc2)NC(=O)CSC[C@@H](C(=O)NCC(N)=O)NC(=O)[C@H](Cc2cncn2C)NC(=O)[C@H](CCCNC(=N)N)NC(=O)[C@H](Cc2c[nH]cn2)NC(=O)[C@H](Cc2ccc(Cl)cc2)N(C)C(=O)[C@H](CCCNC(=N)N)NC(=O)[C@H](CO)NC(=O)CNC(=O)[C@H](Cc2c[nH]cn2)NC(=O)[C@H](Cc2cccc3ccccc23)NC1=O [Compound 33] ({CH2CO}-F[Abu][1Nal]HGSR[NMePhe(4-Cl)]HR[His(π-Me)]CG-NH2; thioether N-12),13,1.6,25,25,0.0005
CC[C@@H]1NC(=O)[C@H](Cc2ccc(Cl)cc2)NC(=O)CSC[C@@H](C(=O)NCC(N)=O)NC(=O)[C@H](Cc2cncn2C)NC(=O)[C@H](CCCNC(=N)N)NC(=O)[C@H](Cc2c[nH]cn2)NC(=O)[C@H](Cc2ccc(O)cc2)N(C)C(=O)[C@H](CCCNC(=N)N)NC(=O)[C@H](CO)NC(=O)CNC(=O)[C@H](Cc2c[nH]cn2)NC(=O)[C@H](Cc2cccc3ccccc23)NC1=O [Compound 22] ({CH2CO}-[Phe(4-Cl)][Abu][1Nal]HGSR[NMeY]HR[His(π-Me)]CG-NH2; thioether N-12),6.3,0.39,13,25,0.002
"CC[C@@H]1NC(=O)[C@H](Cc2ccccc2)NC(=O)CSC[C@@H](C(=O)NCC(N)=O)NC(=O)[C@H](C)NC(=O)[C@H](CCCNC(=N)N)NC(=O)[C@H](Cc2c[nH]cn2)NC(=O)[C@H](Cc2ccc(O)cc2)N(C)C(=O)[C@H](CCCNC(=N)N)NC(=O)[C@H](CO)NC(=O)CNC(=O)[C@H](Cc2c[nH]cn2)NC(=O)[C@H](Cc2cccc3ccccc23)NC1=O [Compound 39, (3R,6S,9S,12S,15S,18S,21S,27S,30S, 33S,36S)-N-(2-amino-2-oxo-ethyl)-36-benzyl-33-ethyl-9,18-bis(3-guanidinopropyl)-21-(hydroxymethyl)-15-[(4-hydroxyphenyl)methyl]-12,27-bis(1H-imidazol-4-ylmethyl)-6,16-dimethyl-30-(1-naphthylmethyl)-5,8,11,14,17,20,23,26,29,32,35,38-dodecaoxo-1-thia-4,7,10,13,16,19,22,25,28,31,34,37-dodecazacyclononatriacontane-3-carboxamide] ({CH2CO}-F[Abu][1Nal]HGSR[NMeY]HRACG-NH2; thioether N-12)",100,100,100,100,6.3
CC(C)[C@@H]1NC(=O)[C@H](Cc2ccccc2)NC(=O)CSC[C@@H](C(=O)NCC(N)=O)NC(=O)[C@H](Cc2cncn2C)NC(=O)[C@H](CCCNC(=N)N)NC(=O)[C@H](Cc2cnc[nH]2)NC(=O)[C@H](Cc2ccc(O)cc2)N(C)C(=O)[C@H](CCCNC(=N)N)NC(=O)[C@H](CO)NC(=O)CNC(=O)[C@H](Cc2cnc[nH]2)NC(=O)[C@H](Cc2c[nH]c3ccccc23)NC1=O (racemic) [Compound 14],25,1.19,25,37.5,0.0119
"CC(C)[C@@H]1NC(=O)[C@H](Cc2ccccc2)NC(=O)CSC[C@@H](C(=O)NCC(N)=O)NC(=O)[C@H](Cc2cnc[nH]2)NC(=O)[C@H](CCCNC(=N)N)NC(=O)[C@H](Cc2cnc[nH]2)NC(=O)[C@H](Cc2ccccc2)N(C)C(=O)[C@H](CCCNC(=N)N)NC(=O)[C@H](CO)NC(=O)CNC(=O)[C@H](Cc2cnc[nH]2)NC(=O)[C@H](Cc2c[nH]c3ccccc23)NC1=O (racemic) [Compound 1, rac-(3R,6S,9S,12S,15S,18S,21S,27S,30S, 33S,36S)-N-(2-amino-2-oxo-ethyl)-15,36-dibenzyl-9,18-bis(3-guanidinopropyl)-21-(hydroxymethyl)-6,12,27-tris(1H-imidazol-5-ylmethyl)-30-(1H-indol-3-ylmethyl)-33-isopropyl-16-methyl-5,8,11,14,17,20,23,26,29,32,35,38-dodecaoxo-1-thia-4,7,10,13,16,19,22,25,28,31,34,37-dodecazacyclononatriacontane-3-carboxamide]",50,6.3,50,100,0.031
CC[C@@H](C)[C@H]1NC(=O)[C@@H](Cc2ccccc2)NC(=O)CSC[C@H](C(=O)NCC(N)=O)NC(=O)[C@@H](Cc2cncn2C)NC(=O)[C@@H](CCCNC(=N)N)NC(=O)[C@@H](Cc2cnc[nH]2)NC(=O)[C@@H](Cc2ccccc2)N(C)C(=O)[C@@H](CCCNC(=N)N)NC(=O)[C@@H](CO)NC(=O)CNC(=O)[C@@H](Cc2cnc[nH]2)NC(=O)[C@@H](Cc2cccc3ccccc23)NC1=O (racemic) [Compound 17],13,3.1,37.5,50,0.002
CC[C@@H]1NC(=O)[C@H](Cc2ccccc2)NC(=O)CSC[C@@H](C(=O)NCC(N)=O)NC(=O)[C@H](Cc2cncn2C)NC(=O)[C@H](CCCNC(=N)N)NC(=O)[C@H](Cc2c[nH]cn2)NC(=O)[C@H](Cc2ccc(O)cc2)N(C)C(=O)[C@H](CCCNC(=N)N)NC(=O)[C@H](CO)NC(=O)[C@@H](CO)NC(=O)[C@H](Cc2c[nH]cn2)NC(=O)[C@H](Cc2cccc3ccccc23)NC1=O [Compound 27] ({CH2CO}-F[Abu][1Nal]H[dS]SR[NMeY]HR[His(π-Me)]CG-NH2; thioether N-12),3.1,0.39,13,13,0.002
CC[C@@H]1NC(=O)[C@H](Cc2ccccc2)NC(=O)CSC[C@@H](C(=O)NCC(N)=O)NC(=O)[C@H](Cc2cncn2C)NC(=O)[C@H](CCCNC(=N)N)NC(=O)[C@H](Cc2c[nH]cn2)NC(=O)[C@H](Cc2ccc(O)cc2)N(C)C(=O)[C@H](CCCNC(=N)N)NC(=O)[C@H](CO)NC(=O)CN(CCCN)C(=O)[C@H](Cc2c[nH]cn2)NC(=O)[C@H](Cc2cccc3ccccc23)NC1=O [Compound 29] ({CH2CO}-F[Abu][1Nal]H[Gly(N(CH2)3NH2)]SR[NMeY]HR[His(π-Me)]CG-NH2; thioether N-12),1.6,0.1,3.1,6.3,0.001

# Source: patent US20240279283A1, “CYCLIC PEPTIDE ANTIBIOTICS” (priority 2021, published 2024)
